According to ChEMBL document CHEMBL1201862, “PubChem BioAssay data set” (2004):
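Dose response: 5 concentrations. Exposure: 48 h. Format: 96-well plates. Endpoint: linear interpolation; highest concentration if not reached. The concentration for 50% growth inhibition is given as GI50.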 The source made the active and inactive calls. Cut-off read from the data, not from the text of the source: active = GI50 up to about 1.1 µM and inactive = higher.

What was measured:
Assay in all cases: growth of human tumour cells (NCI), 48 h
BT-549 = tested on: BT-549
CAKI-1 = tested on: CAKI-1
DU-145 = tested on: DU-145
HOP-92 = tested on: HOP-92
M14 = tested on: M14
MDA-MB-231 = tested on: MDA-MB-231
NCI-H522 = tested on: NCI-H522
OVCAR-4 = tested on: OVCAR-4
OVCAR-5 = tested on: OVCAR-5
RXF 393 = tested on: RXF 393
UACC-257 = tested on: UACC-257
786-0 = tested on: 786-0
A498 = tested on: A498
A549 = tested on: A549
ACHN = tested on: ACHN
CCRF-CEM = tested on: CCRF-CEM
EKVX = tested on: EKVX
HCC 2998 = tested on: HCC 2998
HCT-116 = tested on: HCT-116
HCT-15 = tested on: HCT-15
HL-60 = tested on: HL-60
HOP-62 = tested on: HOP-62
HT-29 = tested on: HT-29
Hs-578T = tested on: Hs-578T
IGROV-1 = tested on: IGROV-1
K562 = tested on: K562
KM12 = tested on: KM12
LOX IMVI = tested on: LOX IMVI
MCF7 = tested on: MCF7
MDA-MB-435 = tested on: MDA-MB-435
MOLT-4 = tested on: MOLT-4
Malme-3M = tested on: Malme-3M
NCI-H226 = tested on: NCI-H226
NCI-H23 = tested on: NCI-H23
NCI-H460 = tested on: NCI-H460
NCI/ADR-RES = tested on: NCI/ADR-RES
OVCAR-3 = tested on: OVCAR-3
OVCAR-8 = tested on: OVCAR-8
PC-3 = tested on: PC-3
RPMI-8226 = tested on: RPMI-8226
SF-268 = tested on: SF-268
SF-295 = tested on: SF-295
SF-539 = tested on: SF-539
SK-MEL-28 = tested on: SK-MEL-28
SK-MEL-2 = tested on: SK-MEL-2
SK-MEL-5 = tested on: SK-MEL-5
SK-OV-3 = tested on: SK-OV-3
SN12C = tested on: SN12C
SNB-19 = tested on: SNB-19
SNB-75 = tested on: SNB-75
SW-620 = tested on: SW-620
T47D = tested on: T47D
TK-10 = tested on: TK-10
U-251 = tested on: U-251
UACC-62 = tested on: UACC-62
UO-31 = tested on: UO-31
COLO 205 = tested on: COLO 205
MDA-N = tested on: MDA-N

NC(CO)Cc1c[nH]cn1 (stereo unspecified)
GI50 (BT-549): > 100 µM (inactive)
GI50 (CAKI-1): > 100 µM (inactive)
GI50 (DU-145): > 100 µM (inactive)
GI50 (HOP-92): > 10 µM (inactive)
GI50 (M14): > 100 µM (inactive)
GI50 (MDA-MB-231): > 100 µM (inactive)
GI50 (NCI-H522): > 100 µM (inactive)
GI50 (OVCAR-4): > 10 µM (inactive)
GI50 (OVCAR-5): > 100 µM (inactive)
GI50 (RXF 393): > 10 µM (inactive)
GI50 (UACC-257): > 100 µM (inactive)

NC(=O)c1ccccc1NC(=O)C(=O)C(c1cnc2ccc([N+](=O)[O-])cc2n1)[N+](=O)[O-] (stereo unspecified)
GI50 (786-0): > 100 µM (inactive)
GI50 (A498): > 100 µM (inactive)
GI50 (A549): > 100 µM (inactive)
GI50 (ACHN): 23.5 µM (inactive)
GI50 (BT-549): > 100 µM (inactive)
GI50 (CAKI-1): > 100 µM (inactive)
GI50 (CCRF-CEM): 39.2 µM (inactive)
GI50 (EKVX): > 100 µM (inactive)
GI50 (HCC 2998): > 100 µM (inactive)
GI50 (HCT-116): 87.7 µM (inactive)
GI50 (HCT-15): 54.6 µM
GI50 (HL-60): > 100 µM (inactive)
GI50 (HOP-62): > 100 µM (inactive)
GI50 (HOP-92): > 100 µM (inactive)
GI50 (HT-29): > 100 µM (inactive)
GI50 (Hs-578T): > 100 µM (inactive)
GI50 (IGROV-1): > 100 µM (inactive)
GI50 (K562): > 100 µM (inactive)
GI50 (KM12): 54.6 µM (inactive)
GI50 (LOX IMVI): 40.5 µM (inactive)
GI50 (M14): > 100 µM (inactive)
GI50 (MCF7): 62.1 µM (inactive)
GI50 (MDA-MB-231): > 100 µM (inactive)
GI50 (MDA-MB-435): > 100 µM (inactive)
GI50 (MOLT-4): 46.3 µM (inactive)
GI50 (Malme-3M): > 100 µM (inactive)
GI50 (NCI-H226): > 100 µM (inactive)
GI50 (NCI-H23): > 100 µM (inactive)
GI50 (NCI-H460): 64.9 µM (inactive)
GI50 (NCI-H522): 33.3 µM (inactive)
GI50 (NCI/ADR-RES): > 100 µM (inactive)
GI50 (OVCAR-3): > 100 µM (inactive)
GI50 (OVCAR-4): 53.6 µM (inactive)
GI50 (OVCAR-5): > 100 µM (inactive)
GI50 (OVCAR-8): > 100 µM (inactive)
GI50 (PC-3): > 100 µM (inactive)
GI50 (RPMI-8226): > 100 µM (inactive)
GI50 (RXF 393): > 100 µM (inactive)
GI50 (SF-268): > 100 µM (inactive)
GI50 (SF-295): > 100 µM (inactive)
GI50 (SF-539): > 100 µM (inactive)
GI50 (SK-MEL-28): > 100 µM (inactive)
GI50 (SK-MEL-2): > 100 µM (inactive)
GI50 (SK-MEL-5): 77.8 µM (inactive)
GI50 (SK-OV-3): > 100 µM (inactive)
GI50 (SN12C): > 100 µM (inactive)
GI50 (SNB-19): 79.1 µM (inactive)
GI50 (SNB-75): > 100 µM (inactive)
GI50 (SW-620): > 100 µM (inactive)
GI50 (T47D): > 100 µM (inactive)
GI50 (TK-10): > 100 µM (inactive)
GI50 (U-251): > 100 µM (inactive)
GI50 (UACC-257): > 100 µM (inactive)
GI50 (UACC-62): > 100 µM (inactive)
GI50 (UO-31): 28.9 µM (inactive)

CCN(CC)CCNc1n[n+]([O-])c2cc([N+](=O)[O-])ccc2[n+]1[O-]
GI50 (A498): 1.9 µM (inactive)
GI50 (A549): 0.454 µM (active)
GI50 (BT-549): 1.19 µM (inactive)
GI50 (CAKI-1): 0.205 µM (active)
GI50 (COLO 205): 326 nM (active)
GI50 (EKVX): 1.94 µM (inactive)
GI50 (HCT-116): 0.3 µM (active)
GI50 (HOP-62): 0.434 µM (active)
GI50 (HT-29): 0.197 µM (active)
GI50 (Hs-578T): 3.25 µM (inactive)
GI50 (IGROV-1): 0.116 µM (active)
GI50 (KM12): 0.504 µM (active)
GI50 (LOX IMVI): 0.444 µM (active)
GI50 (M14): 0.377 µM (active)
GI50 (MDA-MB-435): 0.847 µM (active)
GI50 (MDA-N): 452 nM (active)
GI50 (NCI-H226): 1.83 µM (inactive)
GI50 (NCI/ADR-RES): 0.979 µM (active)
GI50 (OVCAR-3): 0.865 µM (active)
GI50 (OVCAR-4): 1 µM (active)
GI50 (OVCAR-5): 2.04 µM (inactive)
GI50 (OVCAR-8): 0.283 µM (active)
GI50 (RXF 393): 0.809 µM (active)
GI50 (SF-268): 0.568 µM (active)
GI50 (SK-MEL-28): 3.41 µM (inactive)
GI50 (SK-MEL-5): 0.429 µM (active)
GI50 (SK-OV-3): 0.687 µM (active)
GI50 (SNB-19): 1.19 µM (inactive)
GI50 (U-251): 0.603 µM (active)
GI50 (UO-31): 1.84 µM (inactive)
